# Results from patent US12002595B2, “Separation of metal ions by liquid-liquid extraction” (priority 2016, dated 2024).
# Like-named read-outs stand apart in the source and are kept apart here.
# What was measured:
# [1] = Extraction by HDEHP as a function of pH with hold-back reagent
# Protocol: (§1) All liquid-liquid extractions were conducted using a 1:1 organic to aqueous phase ratio for a total volume of 1 mL. Samples were pH adjusted by HNO3 and prepared for a final concentration of 1.0 M sodium lactate, 40 mM of hold-back reagent (160 mM in the case of the HOPO monomer), and 2.0 M Na^+. The concentration of the trivalent f-element was dependent on the availability and radioactivity of the isotopes. The organic phase consisted of 0.5 M HDEHP in kerosene. All samples were incubated in a thermostatic shaker held at 28° C. and rocked at 280 rpm for 90 minutes. To ensure complete phase separation, samples were left overnight at room temperature to equilibrate. Radioactive samples were analyzed by liquid scintillation counting (LSC). The analytical protocol consisted of diluting 10 uL of radioactive sample into 10 mL of Ultima Gold™. Ultima Gold™ is a commercially available analytical reagent commonly used for LSC. The resulting analytical samples were shaken for 10 min prior to counting on a Perkin-Elmer Packard Tri-Carb instrument (model B4430).
# (§2) Data was analyzed by the distribution ratio (Dm), separation factor (SFm1/m2) and extraction percentage (% Extraction) as defined by Equations (6), (7) and (8), respectively. Equation (8) uses concentrations of the metal in each phase since the aqueous: organic ratio was 1. Both the organic and aqueous phases were analyzed after liquid-liquid extraction and phase separation. These calculation methods rely on the assumptions that no metal (M) is lost to sorption or precipitation and that no volume variation occurred during the mass transfer between the aqueous and organic phases.
# (§3) In FIG. 23, aqueous phase: [ligand]=40 mM, buffer sodium lactate/sodium nitrate. Organic phase: [HDEHP]=0.5 M, kerosene diluent. T=25° C. O/A=1, one contact. Initial metal concentrations: [Ac-225]=0.4 nM, [Am-243]=40.4 nM, or [Gd]=500 μM (spiked with Gd-153 for LSC measurements).
# as §3, with “17,” for “23,”, “nitrate, organic” for “nitrate. Organic”, “measurements). Separation factor=ratio M1/M2 in the final organic phase/ratio M1/M2 in the initial aqueous phase. […]” for “measurements).”
# [2] = Eu(III), cited from earlier work
# [3] = cited from earlier work
# [4] = Extraction of plutonium(IV) by HDEHP as a function of pH with hold-back reagent; details: for % Extraction: 40 mM hold-back reagent, 0.5 M HDEHP
# Protocol: as §1, §2
# In FIG. 18, aqueous phase: [ligand]=40 mM, buffer sodium lactate/sodium nitrate, organic phase: [HDEHP]=0.5 M, kerosene diluent. T=25° C. O/A=1, one contact. Initial metal concentrations: [Pu-242]=5 μM. Phases analyzed after one contact. Contact time: 30 min. Limit of detection: 0.03% of the initial Pu-242 activity. Data for separation of tetravalent metal ions from trivalent metal ions using 3,4,3-LI(1,2-HOPO) as a hold-back reagent for tetravalent metal ions are shown in TABLE 0.1.
# [5] = highest value reached, HDEHP/343HOPO-HNO3 system
smiles,measurement,setting,value
"O=C(NCCCN(CCCCN(CCCNC(=O)c1cccc(=O)n1O)C(=O)c1cccc(=O)n1O)C(=O)c1cccc(=O)n1O)c1cccc(=O)n1O [3,4,3-LI(1,2-HOPO)]",SFAc/Am,[1]; [5],"130,000"
same,SFAc/Gd,[1]; [5],"1,300,000"
same,SFAc/Am,[1]; pH 0.9 (±0.1),3.99 * 10^2
same,SFAc/Am,[1]; pH 1.5 (±0.1),9.06 * 10^3
same,SFAc/Gd,[1]; pH 1.5 (±0.1),6.55 * 10^2
same,SFAc/Am,[1]; pH 3.5 (±0.1),8.13 * 10^4
same,SFAc/Gd,[1]; pH 3.5 (±0.1),4.61 * 10^5
same,SFAc/Am,[1]; pH 4.0 (±0.1),1.28 * 10^5
same,SFAc/Gd,[1]; pH 4.0 (±0.1),1.33 * 10^6
same,extraction of actinium,"[1]; pH higher than 1.5, 40 mM ligand, 0.5 M HDEHP",quantitative extraction
same,SFAc/Pu,"[1]; single step, initial Pu/Ac ratio ~10,000 mol/mol, 40 mM chelator, 0.5 M HDEHP","at least 1,000,000"
same,separation factor between Ac and relevant metal impurities,[1]; summary statement,10^6
same,log β111,[2]; I=0.1 M at 25° C.,24.8
same,Last pKa,[3],6.64
same,overall acidity (ΣpKa),"[3]; literature value compared with ΣpKa5-8 of 3,4,3-LI(CAM)",21.2
same,% Extraction,[4]; pH 0.25,0.00%
same,% Extraction,[4]; pH 0.85,0.00%
same,% Extraction,[4]; pH 1.78,0.00%
same,% Extraction,[4]; pH 2.71,0.00%
same,% Extraction,[4]; pH 2.87,0.00%
same,% Extraction,[4]; pH 3.62,0.00%
same,% Extraction,[4]; pH 4.52,0.00%
same,"extraction yield of Pu^4+ (upper limit, instrumental detection limit)","[4]; value plotted on FIG. 18, all tested pH",≤ 0.03%
"O=C(O)CN(CCN(CC(=O)O)CC(=O)O)CCN(CC(=O)O)CC(=O)O [DTPA, Diethylenetriaminepentaacetic acid, reference compound]",SFAm/Ac,[1]; HDEHP/DTPA-HNO3 system,below 10
same,SFGd/Ac,[1]; HDEHP/DTPA-HNO3 system,"< 5,300"
same,maximum metal extraction of Ac(III),[1]; around pH 1.5,49%
same,extraction of Ac(III),[1]; at pH 4,less than 10%
same,SFAc/Gd,[1]; pH 0.8 (±0.1),<10^−3
same,SFAc/Am,[1]; pH 0.9 (±0.1),5.83 * 10^−2
same,SFAc/Am,[1]; pH 1.5 (±0.1),2.70 * 10^−1
same,SFAc/Gd,[1]; pH 1.5 (±0.1),<10^−3
same,SFAc/Am,[1]; pH 3.5 (±0.1),6.86 * 10^−2
same,SFAc/Gd,[1]; pH 3.5 (±0.1),<10^−3
same,SFAc/Am,[1]; pH 4.0 (±0.1),1.11 * 10^−1
same,SFAc/Gd,[1]; pH 4.0 (±0.1),<10^−3
same,log β111,[2]; I=2.0 M at 25° C.,22.56
same,Last pKa,[3],10.4
same,% Extraction,[4]; pH 0.40,95.24%
same,% Extraction,[4]; pH 1.27,4.08%
same,% Extraction,[4]; pH 1.84,1.17%
same,% Extraction,[4]; pH 2.55,0.63%
same,% Extraction,[4]; pH 2.75,0.73%
same,% Extraction,[4]; pH 3.45,0.65%
same,% Extraction,[4]; pH 4.29,0.29%
